Data from patent US20250114387A1, “PHARMACEUTICAL COMPOSITION COMPRISING ENAVOGLIFLOZIN FOR PREVENTING OR TREATING OBESITY IN CANINE ANIMALS” (DAEWOONG PHARMACEUTICAL CO., LTD., priority 2022, published 2025).

Columns and labels:
obese dogs [1] = assay: Clinical trial in obese dogs: serum biochemical parameters; assay type: in vivo; conditions: for ALB / ALP / ALT / AST / BUN / CPK / CRE / GGT / Glu / TC / TP / TG: serum
Protocol: (§1) A total of 20 dogs were selected and divided into 4 groups with 5 dogs in each group: a normal obese control (OC); hereinafter, referred to as a control (OC)), an enavogliflozin 0.2-administered group, an enavogliflozin 0.5-administered group, and an enavogliflozin 1-administered group. The control was fed regular feed, and the enavogliflozin-administered groups were fed regular feed supplemented with enavogliflozin at doses of 0.2, 0.5, or 1 mg/kg, respectively. The feed was supplemented with enavogliflozin once a day for 8 weeks and given orally.
Biological analysis was performed as follows. A portion of the blood collected on the day of the test was transferred to a vacuum tube containing a coagulation activator, left at room temperature for 15 to 20 minutes to solidify, and then centrifuged at 3000 rpm, thereby obtaining serum. Serum biochemical parameters were evaluated using a Hitachi 7180 device (Hitachi, Tokyo, Japan). The evaluated biochemical parameters are aspartate aminotransferase (AST), alanine aminotransferase (ALT), alkaline phosphatase (ALP), creatine phosphokinase (CPK), total bilirubin (TBIL), glucose (GLU), total cholesterol (TC), triglycerides (TG), total protein (TP), albumin (ALB), gamma-glutamyl transpeptidase (GGT), blood urea nitrogen (BUN), creatinine (CRE), inorganic phosphorus (IP), calcium (Ca), and C-reactive protein (CRP).

[2] = Non-clinical toxicity test: 13 weeks repeated oral administration, changes in body weight; assay type: in vivo, beagles
Protocol: Changes in body weight were confirmed after administering enavogliflozin to four female and four male 6-month-old normal beagles at 0 (control, gelatin capsule), 1, 3, and 6 mg/kg/day for 13 weeks. The above amounts of enavogliflozin were charged in a gelatin capsule and administered daily.

obese dogs [3] = assay: Clinical trial in obese dogs: feed intake; assay type: in vivo; conditions: for feed intake compared to the control (OC): during the 10-week experimental period
Protocol: as §1, with “The feed was supplemented with enavogliflozin once a day for 8 weeks and given orally.” left out

obese dogs [4] = assay: Clinical trial in obese dogs: serum insulin concentration (ELISA); assay type: in vivo; conditions: for Insulin: serum
Protocol: as §1
Serum insulin concentrations were measured 2, 4, 6, 8, and 10 weeks after the start of enavogliflozin administration using a Quantikine Canine Insulin ELISA kit (Catalog no. DINS00, R&D Systems, Minneapolis, MN, USA) according to the manufacturer's protocol. Urine biochemical parameters were evaluated using urine test strips 2, 4, 6, and 10 weeks after the start of enavogliflozin administration, and urinary glucose (GLU) excretion was measured using UriSCAN® Strip (YD Diagnostics Corp., Yong-in, Korea).

[5] = Non-clinical toxicity test: 39 weeks repeated oral administration, changes in body weight; assay type: in vivo, beagles
[6] = obese dogs, 0.2 mg/kg once a day oral for 8 weeks
[7] = obese dogs, 0.5 mg/kg once a day oral for 8 weeks
[8] = obese dogs, 1 mg/kg once a day oral for 8 weeks
[9] = normal female beagles, 1 mg/kg/day oral
[10] = normal female beagles, 3 mg/kg/day oral
[11] = normal female beagles, 6 mg/kg/day oral
[12] = normal male beagles, 1 mg/kg/day oral
[13] = normal male beagles, 3 mg/kg/day oral
[14] = normal male beagles, 6 mg/kg/day oral

OC[C@H]1O[C@@H](c2cc(Cc3ccc(C4CC4)cc3)c(Cl)c3c2CCO3)[C@H](O)[C@@H](O)[C@@H]1O [Enavogliflozin, enavogliflozin]
C-reactive protein (CRP) compared to the control (OC) (obese dogs [1]; obese dogs, 0.2 mg/kg): significantly decreased | alanine aminotransferase (ALT) compared to the control (OC) (obese dogs [1]; obese dogs, 0.2 mg/kg): significantly decreased | alkaline phosphatase (ALP) compared to the control (OC) (obese dogs [1]; obese dogs, 0.2 mg/kg): significantly decreased | creatine phosphokinase (CPK) compared to the control (OC) (obese dogs [1]; obese dogs, 0.2 mg/kg): significantly decreased | serum gamma-glutamyl transpeptidase (GGT) compared to the control (OC) (obese dogs [1]; obese dogs, 0.2 mg/kg): significantly decreased | serum total cholesterol (TC) compared to the control (OC) (obese dogs [1]; obese dogs, 0.2 mg/kg): lower than those of the control (OC) | triglyceride (TG) concentration compared to the control (OC) (obese dogs [1]; obese dogs, 0.2 mg/kg): lower than those of the control (OC) | glucose (GLU) concentration compared to the control (OC) (obese dogs [1]; obese dogs, 1 mg/kg): significantly lower | serum triglyceride (TG) concentrations compared to the control (obese dogs [1]; obese dogs, 0.2, 0.5 and 1 mg/kg groups): significantly lower than that of the control | fasting glucose compared to the control (OC) (obese dogs [1]; obese dogs, all administration groups): decreased compared to the control (OC) | ALB (obese dogs [1]; [6]): 3.48 ± 0.42 g/dL | ALP (obese dogs [1]; [6]): 84.60 ± 63.96 IU/L | ALT (obese dogs [1]; [6]): 18.84 ± 4.00 IU/L | AST (obese dogs [1]; [6]): 31.00 ± 1.83 IU/L | BUN (obese dogs [1]; [6]): 18.70 ± 10.29 mg/dL | CPK (obese dogs [1]; [6]): 111.12 ± 30.97 IU/L | CRE (obese dogs [1]; [6]): 0.78 ± 0.21 mg/dL | GGT (obese dogs [1]; [6]): 7.80 ± 1.64 IU/L | Glu (obese dogs [1]; [6]): 107.20 ± 10.85 mg/dL | TC (obese dogs [1]; [6]): 183.84 ± 36.01 mg/dL | TP (obese dogs [1]; [6]): 6.78 ± 0.66 g/dL | TG (obese dogs [1]; obese dogs, 0.2 mg/kg once a day oral for 8 weeks, 0.2 mg/kg): 142.00 ± 95.55 mg/dL | TG (obese dogs [1]; obese dogs, 0.2 mg/kg once a day oral for 8 weeks, listed as enavogliflozin, 0.2 mg/kg): 142.00 ± 95.55 mg/dL | ALB (obese dogs [1]; [7]): 2.95 ± 0.19 g/dL | ALP (obese dogs [1]; [7]): 146.20 ± 121.67 IU/L | ALT (obese dogs [1]; [7]): 36.80 ± 14.43 IU/L | AST (obese dogs [1]; [7]): 31.84 ± 12.92 IU/L | BUN (obese dogs [1]; [7]): 22.25 ± 8.64 mg/dL | CPK (obese dogs [1]; [7]): 136.50 ± 42.99 IU/L | CRE (obese dogs [1]; [7]): 0.82 ± 0.15 mg/dL | GGT (obese dogs [1]; [7]): 9.46 ± 5.37 IU/L | Glu (obese dogs [1]; [7]): 97.77 ± 10.19 mg/dL | TC (obese dogs [1]; [7]): 298.00 ± 71.14 mg/dL | TP (obese dogs [1]; [7]): 6.43 ± 0.32 g/dL | TG (obese dogs [1]; obese dogs, 0.5 mg/kg once a day oral for 8 weeks, 0.5 mg/kg): 133.86 ± 70.19 mg/dL | TG (obese dogs [1]; obese dogs, 0.5 mg/kg once a day oral for 8 weeks, listed as enavogliflozin, 0.5 mg/kg): 133.86 ± 70.19 mg/dL | ALB (obese dogs [1]; [8]): 2.92 ± 0.29 g/dL | ALP (obese dogs [1]; [8]): 186.20 ± 184.59 IU/L | ALT (obese dogs [1]; [8]): 38.60 ± 19.72 IU/L | AST (obese dogs [1]; [8]): 110.00 ± 167.92 IU/L | BUN (obese dogs [1]; [8]): 23.44 ± 13.17 mg/dL | CPK (obese dogs [1]; [8]): 260.40 ± 126.79 IU/L | CRE (obese dogs [1]; [8]): 0.92 ± 0.36 mg/dL | GGT (obese dogs [1]; [8]): 21.60 ± 29.36 IU/L | Glu (obese dogs [1]; [8]): 94.00 ± 13.47 mg/dL | TC (obese dogs [1]; [8]): 309.00 ± 129.40 mg/dL | TP (obese dogs [1]; [8]): 6.14 ± 0.54 g/dL | TG (obese dogs [1]; obese dogs, 1 mg/kg once a day oral for 8 weeks, 1 mg/kg): 282.60 ± 419.03 mg/dL | TG (obese dogs [1]; obese dogs, 1 mg/kg once a day oral for 8 weeks, listed as enavogliflozin, 1 mg/kg): 282.60 ± 419.03 mg/dL | body weight decrease compared to the control [2, 9]: 19.6% | body weight decrease compared to the control [2, 10]: 18.5% | body weight decrease compared to the control [2, 11]: 33.2% | body weight decrease compared to the control [2, 12]: 17.7% | body weight decrease compared to the control [2, 13]: 16% | body weight decrease compared to the control [2, 14]: 29.9% | Change rates of food consumption (obese dogs [3]; 0.2 mg/kg once a day oral for 8 weeks, week 0): 100.00 ± 0.00% | Change rates of food consumption (obese dogs [3]; 0.2 mg/kg once a day oral for 8 weeks, week 2): 126.52 ± 5.48 % | Change rates of food consumption (obese dogs [3]; 0.2 mg/kg once a day oral for 8 weeks, week 4): 146.64 ± 5.37 % | Change rates of food consumption (obese dogs [3]; 0.2 mg/kg once a day oral for 8 weeks, week 6): 153.71 ± 4.11 % | Change rates of food consumption (obese dogs [3]; 0.2 mg/kg once a day oral for 8 weeks, week 8): 168.32 ± 4.80 % | Change rates of food consumption (obese dogs [3]; 0.2 mg/kg once a day oral for 8 weeks, week 10, 0.2 mg/kg): 166.59 ± 4.72 % | Change rates of food consumption (obese dogs [3]; 0.2 mg/kg once a day oral for 8 weeks, week 10, listed as enavogliflozin, 0.2 mg/kg): 166.59±4.72% | feed intake compared to the control (OC) (obese dogs [3]; 0.2 mg/kg, p<0.001): significantly increased | Change rates of food consumption (obese dogs [3]; 0.5 mg/kg once a day oral for 8 weeks, week 0): 100.00 ± 0.00% | Change rates of food consumption (obese dogs [3]; 0.5 mg/kg once a day oral for 8 weeks, week 2): 95.13 ± 1.67 % | Change rates of food consumption (obese dogs [3]; 0.5 mg/kg once a day oral for 8 weeks, week 4): 92.34 ± 2.10 % | Change rates of food consumption (obese dogs [3]; 0.5 mg/kg once a day oral for 8 weeks, week 6): 92.30 ± 1.60 % | Change rates of food consumption (obese dogs [3]; 0.5 mg/kg once a day oral for 8 weeks, week 8): 93.64 ± 1.67 % | Change rates of food consumption (obese dogs [3]; 0.5 mg/kg once a day oral for 8 weeks, week 10, 0.5 mg/kg): 98.47 ± 1.44% | Change rates of food consumption (obese dogs [3]; 0.5 mg/kg once a day oral for 8 weeks, week 10, listed as enavogliflozin, 0.5 mg/kg): 98.47±1.44% | feed intake compared to the control (OC) (obese dogs [3]; 0.5 mg/kg): decreased | Change rates of food consumption (obese dogs [3]; 1 mg/kg once a day oral for 8 weeks, week 0): 100.00 ± 0.00% | Change rates of food consumption (obese dogs [3]; 1 mg/kg once a day oral for 8 weeks, week 2): 100.80 ± 4.20% | Change rates of food consumption (obese dogs [3]; 1 mg/kg once a day oral for 8 weeks, week 4): 116.02 ± 3.09 % | Change rates of food consumption (obese dogs [3]; 1 mg/kg once a day oral for 8 weeks, week 6): 121.84 ± 2.50 % | Change rates of food consumption (obese dogs [3]; 1 mg/kg once a day oral for 8 weeks, week 8): 121.88 ± 2.36 % | Change rates of food consumption (obese dogs [3]; 1 mg/kg once a day oral for 8 weeks, week 10, 1 mg/kg): 123.15 ± 2.45 % | Change rates of food consumption (obese dogs [3]; 1 mg/kg once a day oral for 8 weeks, week 10, listed as enavogliflozin, 1 mg/kg): 123.15±2.45% | feed intake compared to the control (OC) (obese dogs [3]; 1 mg/kg, p<0.001): significantly increased | insulin concentration compared to the control (OC) (obese dogs [4]; 0.5 mg/kg): significantly lower | serum insulin concentration compared to the control (OC) (obese dogs [4]; all administration groups): decreased compared to the control (OC) | Insulin (obese dogs [4]; 0.2 mg/kg once a day oral for 8 weeks): 126.60 ± 15.45 ng/mL | Insulin (obese dogs [4]; 0.5 mg/kg once a day oral for 8 weeks): 99.82 ± 18.48 ng/mL | Insulin (obese dogs [4]; 1 mg/kg once a day oral for 8 weeks): 110.75 ± 21.96 ng/mL | body weight decrease [5, 9]: 7.6% | body weight decrease [5, 10]: 11.8% | body weight decrease [5, 11]: 11.3% | body weight decrease [5, 12]: 9.1% | body weight decrease [5, 13]: 12.7% | body weight decrease [5, 14]: 21.0%
